Data on four compounds can be found in patent US6852499B2, “Luciferase detection reagent kits and luciferase detection method using the kit” (Toyo Ink Mfg. Co., Ltd., priority 2002, dated 2005).

The target in the test is T1, Coleoptera luciferase (Photinus pyralis, UniProt P08659).
T1 construct: purchased Toyo Ink Manufacturing Co., Ltd. PGL100
The test is described as follows: luciferin/luciferase luminescent reaction with an added sulfur reagent, measured on a luminometer. Format: biochemical. The note with it: for RLU/200 (integrated quantity of light emitted for 200 seconds) / max RLU (maximum quantity of light emitted): 100 ng/mL luciferase; for max RLU (maximum quantity of light emitted): initial 200 seconds; for emission pattern (glow vs flash luminescence): reagent without thiol reagent, 200 seconds. On the procedure: The luciferase used was one included in a commercially available kit (Toyo Ink Manufacturing Co., Ltd.; product No. PGL100).
A “luciferase luminescent reagent” containing 20 mM tricine, 1.07 mM (MgCO3)4Mg(OH)2·5H2O, 2.67 mM magnesium sulfate, 0.1 mM EDTA, 270 μM CoA, 470 μM luciferin and 530 μM adenosine triphosphate (ATP), pH 7.8 was prepared in accordance with the formulation described in the instructions included in “PicaGene Luminescent Kit” (Toyo Ink Manufacturing Co., Ltd.; product No. PGL100), except that 33.3 mM dithiothreitol (DTT) mentioned in the instructions was not added. To the “luciferase luminescent reagent” was added sodium diethyldithiocarbamate at final concentrations of 0 mM, 0.33 mM, 3.3 mM and 33.3 mM.
An enzyme solution containing 100 ng/mL of luciferase was collected in 10 μL in a measurement cuvette of a luminometer (Berthold, LB9506). To the enzyme solution was added 100 μL of each of the “luciferase luminescent reagents” prepared above. Immediately after the addition, the resulting mixed solution was loaded on the luminometer, and the quantity of light emitted was measured for the initial 200 seconds of the reagent addition to determine the maximum quantity of light emitted (RLU/sec) during the period of measurement and the integrated quantity of light emitted for 200 seconds (RLU/200 sec) (Table 2).
(§1) A “luciferase luminescent reagent” containing 20 mM tricine, 1.07 mM (MgCO3)4Mg(OH)2·5H2O, 2.67 mM magnesium sulfate, 0.1 mM EDTA, 270 μM CoA, 470 μM luciferin and 530 μM adenosine triphosphate (ATP), pH 7.8 was prepared in accordance with the formulation described in the instructions included in “PicaGene Luminescent Kit” (Toyo Ink Manufacturing Co., Ltd.; product No. PGL100), except that 33.3 mM dithiothreitol (DTT) mentioned in the instructions was not added.
A “luciferase luminescent reagent” containing 20 mM tricine, 1.07 mM (MgCO3)4Mg(OH)2·5H2O, 2.67 mM magnesium sulfate, 0.1 mM EDTA, 270 μM CoA, 470 μM luciferin and 530 μM adenosine triphosphate (ATP), pH 7.8 was prepared in accordance with the formulation described in the instructions included in “PicaGene Luminescent Kit” (Toyo Ink Manufacturing Co., Ltd.; product No. PGL100), except that 33.3 mM dithiothreitol (DTT) mentioned in the instructions was not added. To the “luciferase luminescent reagent” was added potassium xanthogenate at final concentrations of 0 mM, 0.33 mM 3.3 mM and 33.3 mM.
To the enzyme solution was added 100 μL of each of the “luciferase luminescent reagents” prepared above. Immediately after the addition, the resulting mixed solution was loaded on the luminometer, and the quantity of light emitted was measured for the initial 200 seconds of the reagent addition to determine the maximum quantity of light emitted (RLU/sec) during the period of measurement and the integrated quantity of light emitted for 200 seconds (RLU/200 sec) (Table 2).
A “luciferase luminescent reagent” containing 20 mM tricine, 1.07 mM (MgCO3)4Mg(OH)2·5H2O, 2.67 mM magnesium sulfate, 0.1 mM EDTA, 270 μM CoA, 470 μM luciferin and 530 μM adenosine triphosphate (ATP), pH 7.8 was prepared in accordance with the formulation described in the instructions included in “PicaGene Luminescent Kit” (Toyo Ink Manufacturing Co., Ltd.; product No. PGL100), except that 33.3 mM dithiothreitol (DTT) mentioned in the instructions was not added. To the “luciferase luminescent reagent” was added 2-mercaptobenzothiazole at final concentrations of 0 mM, 0.33 mM 3.3 mM and 33.3 mM.
as §1

T1 sequence (P08659 whole entry): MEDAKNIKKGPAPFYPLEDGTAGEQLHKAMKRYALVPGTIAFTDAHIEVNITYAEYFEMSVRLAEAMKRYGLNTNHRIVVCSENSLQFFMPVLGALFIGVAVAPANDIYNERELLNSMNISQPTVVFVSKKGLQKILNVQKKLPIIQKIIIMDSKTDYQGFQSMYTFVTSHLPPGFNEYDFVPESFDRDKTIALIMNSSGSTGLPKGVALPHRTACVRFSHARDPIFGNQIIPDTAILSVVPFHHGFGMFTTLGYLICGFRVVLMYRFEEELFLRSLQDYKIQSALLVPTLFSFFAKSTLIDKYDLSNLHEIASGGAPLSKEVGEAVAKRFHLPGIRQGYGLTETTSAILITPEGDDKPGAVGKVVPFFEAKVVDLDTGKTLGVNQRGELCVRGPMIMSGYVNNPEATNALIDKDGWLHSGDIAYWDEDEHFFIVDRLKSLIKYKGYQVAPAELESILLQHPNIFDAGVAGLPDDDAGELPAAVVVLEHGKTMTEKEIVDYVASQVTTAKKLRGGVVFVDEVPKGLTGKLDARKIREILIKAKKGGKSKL

Turning to `CCN(CC)C(=S)[S-].[Na+]` [Sodium diethyldithiocarbamate, sodium diethyldithiocarbamate], the “emission pattern (glow vs flash luminescence)” value was “glow luminescence”. For the same compound, where the note is “0.33 mM and 3.3 mM”, the “change of the maximum quantity of light emitted (RLU/sec) as compared with the system containing no reagent (0 mM)” value is reported as “increased only slightly” and the “increase in the integrated quantity of light emitted (RLU/200 sec) as compared with the system containing no reagent (0 mM)” value is “about 1.7 fold”. Also, for the setting “33.3 mM vs 0.33 mM, 3.3 mM”, the “maximum and integrated quantity of light emitted relative to the systems at lower concentrations” value is recorded as “about two-fifths”. In addition, under “final concentration 0.33 mM”, the “RLU/200 (integrated quantity of light emitted for 200 seconds)” value is recorded as 592,116,224 RLU/200 sec and the “max RLU (maximum quantity of light emitted)” value (“max RLU” for short) was 3,267,710 RLU/sec. Where the note is “final concentration 3.3 mM”, the “RLU/200 (integrated quantity of light emitted for 200 seconds)” value is recorded as 611,260,800 RLU/200 sec and the “max RLU” value is 3,141,880 RLU/sec. For the setting “final concentration 33.3 mM”, the “RLU/200 (integrated quantity of light emitted for 200 seconds)” value was 246,535,408 RLU/200 sec and the “max RLU” value is reported as 1,261,630 RLU/sec.
Regarding `O[C@H](CS)[C@H](O)CS` (racemic) [DTT, dithiothreitol, reference compound], the “integrated quantity of light emitted (RLU/for 200 sec), dependence on concentration” value (0 to 33.3 mM) is recorded as “increased with increasing DTT concentration”. Also, the “change of the maximum quantity of light emitted (RLU/sec) as compared with the system containing no reagent (0 mM)” value (0.33 mM and 3.3 mM) was “little difference”. For the same compound, the “maximum quantity of light emitted relative to the value for the system without DTT” value (33.3 mM) came to 1.8 times. For the same compound, the “RLU/200 (integrated quantity of light emitted for 200 seconds)” value is, setting by setting: (final concentration 0.33 mM) 511,723,424 RLU/200 sec; (final concentration 3.3 mM) 579,940,160 RLU/200 sec; (final concentration 33.3 mM) 667,250,048 RLU/200 sec. The “max RLU” value runs as follows: (final concentration 0.33 mM) 3,359,620 RLU/sec; (final concentration 3.3 mM) 3,221,070 RLU/sec; (final concentration 33.3 mM) 3,434,180 RLU/sec.
Regarding `Sc1nc2ccccc2s1` [2-mercaptobenzothiazole], the “emission pattern (glow vs flash luminescence)” value is reported as “glow luminescence”. In addition, where the note is “0.33 mM and 3.3 mM”, the “change of the maximum quantity of light emitted (RLU/sec) as compared with the system containing no reagent (0 mM)” value is “increased only slightly” and the “increase in the integrated quantity of light emitted (RLU/200 sec) as compared with the system containing no reagent (0 mM)” value is recorded as “about 1.7 fold”. Further, the “maximum and integrated quantity of light emitted relative to the system at a lower concentration” value (33.3 mM vs 3.3 mM) is reported as “nearly two-thirds”. Where the note is “final concentration 0.33 mM”, the “RLU/200 (integrated quantity of light emitted for 200 seconds)” value is on record as 492,116,224 RLU/200 sec and the “max RLU” value is reported as 3,267,710 RLU/sec. Moreover, where the note is “final concentration 3.3 mM”, the “RLU/200 (integrated quantity of light emitted for 200 seconds)” value is 622,578,816 RLU/200 sec and the “max RLU” value was 3,410,350 RLU/sec. In addition, for the setting “final concentration 33.3 mM”, the “RLU/200 (integrated quantity of light emitted for 200 seconds)” value was 421,084,568 RLU/200 sec and the “max RLU” value is reported as 2,603,090 RLU/sec.
With `CCOC(=S)[S-].[K+]` [Potassium xanthogenate, potassium xanthogenate], the “emission pattern (glow vs flash luminescence)” value was “glow luminescence”. For the same compound, where the note is “0.33 mM”, the “change of the maximum quantity of light emitted (RLU/sec) as compared with the system containing no reagent (0 mM)” value is listed as “increased only slightly” and the “increase in the integrated quantity of light emitted (RLU/200 sec) as compared with the system containing no reagent (0 mM)” value is on record as “about 1.7 fold”. Besides, the “maximum and integrated quantity of light emitted relative to the system at a lower concentration” value (33.3 mM vs 0.33 mM) is recorded as “about one-thirteenth”. Besides, where the note is “final concentration 0.33 mM”, the “RLU/200 (integrated quantity of light emitted for 200 seconds)” value is listed as 616,747,200 RLU/200 sec and the “max RLU” value is 3,232,620 RLU/sec. In addition, for the setting “final concentration 3.3 mM”, the “RLU/200 (integrated quantity of light emitted for 200 seconds)” value is 92,549,720 RLU/200 sec and the “max RLU” value is reported as 473,070 RLU/sec. In addition, under “final concentration 33.3 mM”, the “RLU/200 (integrated quantity of light emitted for 200 seconds)” value is 4,519,292 RLU/200 sec and the “max RLU” value is 24,210 RLU/sec.
